Laboratory results published in patent US20140206678A1, “INHIBITORS OF MTOR KINASE AS ANTI -VIRAL AGENT” (KADMON CORPORATION, LLC, priority 2011, published 2014).

Tests used:
HCMV [1] = test: HCMV multistep growth in serum-starved human fibroblasts, cell-free virus by TCID50; type: cell-based, human cytomegalovirus
HCMV DNA = test: HCMV viral DNA in infected fibroblasts by qPCR; type: cell-based, human cytomegalovirus
Experimental: (§1) FIG. 2. […] Serum-starved confluent fibroblasts were infected with HCMV at a multiplicity of 3 PFU/cell. […] Control cultures received the vehicle in which Torin1 was dissolved (NT). At 2 hpi cells were harvested, and cell-associated viral DNA was quantified by real-time PCR analysis. Error bars represent the standard errors of the means from two independent experiments performed in duplicate. […] The level of IE1 was determined at 6 hpi by a Western blot assay using an IE1-specific monoclonal antibody. The image is representative of two independent experiments. […] The expression of a GFP marker gene present in the viral genome was monitored at 24 h after infection in the presence or absence of drug.
FIG. 3. […] Cells were harvested at the indicated times, and the accumulation of the indicated proteins was analyzed by Western blotting. […] At the indicated times DNA was isolated, and viral DNA was quantified by qPCR. Equivalent amounts of DNA were analyzed for each sample, and the results are normalized to the level of actin DNA per sample. […] At the indicated times the amount of UL99 RNA was determined by qPCR, and the results are normalized to the amount of actin RNA in each sample. […]
Briefly, primary human fibroblasts were infected with BADinGFP at a multiplicity of 0.05 PFU/cell. […] For each sample, DNA was quantified by using a NanoDrop spectrophotometer (Thermo Scientific). […]

HCMV [2] = test: GFP marker expression from the HCMV genome (percentage of infected cells); type: cell-based, human cytomegalovirus; details: 24 hpi; 250 nM
Experimental: as §1

UL99 mRNA = test: UL99 late transcript level by qPCR in HCMV-infected fibroblasts; type: cell-based, human cytomegalovirus; details: rapamycin 20 nM, Torin1 250 nM; 3 PFU/cell
[3] = system: mTORC1 targets (4EBP1, rpS6); test: Phosphorylation of mTORC1 targets in HCMV-infected fibroblasts (Western blot); type: cell-based, human; details: rapamycin 20 nM, Torin1 250 nM
MCMV = MCMV replication in mouse embryo fibroblasts, TCID50; type: cell-based, murine cytomegalovirus; details: Torin1 250 nM
[4] = system: mTORC1 targets (4EBP1, rpS6); test: Phosphorylation of mTORC1 targets in MCMV-infected MEFs (Western blot); type: cell-based, mouse; details: Torin1 250 nM; for 4EBP1 phosphorylation: MCMV
eIF4F complex = test: Cap-binding (eIF4F) complex in MCMV-infected MEFs, m7G-Sepharose; type: cell-based, mouse; details: Torin1 250 nM, 48 hpi
Experimental: FIG. 7. […] At 6 days post infection the amount of MCMV in cell-free supernatants was determined by the TCID50 method. The error bars represent the standard errors of the means from three independent experiments, each performed in duplicate. […] At 48 hpi equal amounts of protein from cell lysates were incubated with m^7G-Sepharose. The presence of eIF4F complex components bound by the cap analog was determined by Western blotting. The results are representative of two independent experiments.

HSV-1 = HSV-1 replication in MEFs, TCID50; type: cell-based, herpes simplex virus type 1; details: 72 hpi
4EBP1 = 4EBP1 phosphorylation in HSV-1-infected MEFs (Western blot); type: cell-based, mouse; details: 8 hpi, 3 PFU/cell
Experimental: FIG. 8. Rapamycin-resistant mTOR activity is required for lytic replication by representative alpha- and gamma-herpesviruses. (A) Confluent serum-starved MEFs were infected at a multiplicity of 0.05 PFU/cell with HSV-1 or γHV68. The amount of virus in cell-free supernatants was determined by the TCID50 method at 72 hpi for HSV-1 (left) and at 6 days post infection for γHV68 (right). Black bars represent vehicle-treated samples (N) (DMSO), gray bars represent rapamycin-treated samples (R) (20 nM), and white bars represent Torin1-treated samples (T) (250 nM). The error bars represent the standard errors of the means from at least two independent experiments. (B) Confluent MEF monolayers were infected with HSV-1 at a multiplicity of 3 PFU/cell. Infected cell lysates were harvested at 8 hpi, and equal amounts of protein were analyzed by Western blotting. (C) WT or 4EBP1-null MEFs were infected with HSV-1 at a multiplicity of 0.05 PFU/cell. The amount of cell-free virus present in the supernatant at 72 hpi was quantified by the TCID50 method. The error bars represent the standard errors of the means from two independent experiments.

cells = details: concentrations of up to 500 nM; previous reports; cited from earlier work
[5] = 48 hpi, rapamycin 20 nM, LY294002 20 μM

With `CCC(=O)N1CCN(c2ccc(-n3c(=O)ccc4cnc5ccc(-c6cnc7ccccc7c6)cc5c43)cc2C(F)(F)F)CC1` [Torin1] as the compound, how does the IC50 (HCMV [1]; Human betaherpesvirus 5, Fibroblast, 192 h, read-out: IC50 for blocking production of HCMV progeny) read?
The IC50 was ~60 nM.

And the “HCMV replication after removal of drug” value (HCMV [1]; cells had received 100 nM Torin1, 16 days post infection)?
The value was “completely recovered”.

And the “HCMV replication after removal of drug” value (HCMV [1]; cells had received 250 nM drug, 16 days post infection)?
The value was “substantially recovered”.

And the “HCMV replication after removal of drug” value (HCMV [1]; cultures initially received 1 mM drug, 16 days post infection)?
The value was “partially recovered”.

And the “reduction of HCMV yield” value (HCMV [1]; day 10, rapamycin 20 nM, Torin1 250 nM, 0.05 PFU/cell)?
Its value is “about 160 fold”.

And the “increase in virus yield after reversal of an 8-day Torin1 treatment” value (HCMV [1]; drug release, 16 days post infection)?
The value was > 100 fold.

What about the “level of cell-associated viral DNA” value (HCMV DNA; 2 hpi, 250 nM, pretreated 24 h or after adsorption, 3 PFU/cell) of the same compound?
Its value is “not influenced”.

What about the “reduction of viral DNA accumulation” value (HCMV DNA; 96 hpi, Torin1 250 nM, 0.05 PFU/cell) of the same compound?
The value was 150 fold.

And the “percentage of cells expressing GFP marker protein” value (HCMV [2])?
Its value is “did not alter”.

What about the “levels of UL99 mRNA” value (UL99 mRNA) of the same compound?
The value was “decreased”.

And the “phosphorylation of 4EBP1 during HCMV infection” value [3]?
Its value is “substantially blocked”.

What about the “induction of rpS6 phosphorylation during HCMV infection” value ([3]; 48 hpi) of the same compound?
Its value is “markedly inhibited”.

And the MCMV replication (MCMV; 4EBP1-null MEFs, rapamycin 20 nM, 6 days post infection)?
Its MCMV replication is “no longer capable of inhibiting”.

What about the MCMV replication (MCMV; Akt1/Akt2-null MEFs) of the same compound?
The MCMV replication was “Torin-sensitive”.

And the MCMV replication (MCMV; Rictor-null MEFs, 6 days post infection)?
The MCMV replication was “effectively inhibited”.

What about the MCMV replication (MCMV; wild-type MEFs, rapamycin 20 nM, 0.05 PFU/cell) of the same compound?
Its MCMV replication is “inhibited”.

And the “phosphorylation of 4EBP1 in MCMV-infected MEFs” value [4, 5]?
Its value is “inhibited”.

And the “phosphorylation of rpS6 in MCMV-infected MEFs” value [4, 5]?
The value was “completely inhibited”.

And the 4EBP1 phosphorylation ([4]; Akt1/Akt2-null MEFs)?
Its 4EBP1 phosphorylation is “inhibited”.

What about the 4EBP1 phosphorylation ([4]; Rictor-null MEFs) of the same compound?
The 4EBP1 phosphorylation was “effectively inhibited”.

And the “formation of the eIF4F complex” value (eIF4F complex; 4EBP1-null cells)?
The value was “no such effect was observed”.

And the “formation of the eIF4F complex” value (eIF4F complex; control cells)?
The value was “inhibited the formation”.

What about the HSV-1 replication (HSV-1; MEFs, rapamycin 20 nM, Torin1 250 nM, 0.05 PFU/cell) of the same compound?
The HSV-1 replication was “inhibited”.

And the “production of HSV-1” value (HSV-1; cells lacking 4EBP1)?
The value was “failed to inhibit”.

What about the “phosphorylation of 4EBP1 during HSV-1 infection” value (4EBP1) of the same compound?
The value was “inhibited”.

What about the cell killing (cells) of the same compound?
The cell killing was “does not kill cells”.
